These results are taken from patent US9271971B2, “Pyrido[3,4-B]indoles and methods of use” (Medivation Technologies, Inc., priority 2009, dated 2016).

For experiment [1], the target named is T1, human recombinant adrenergic α2B receptor (Homo sapiens, UniProt P18089).
T1 construct: expressed in transfected cells; host or cells: Chinese hamster ovary (CHO-K1) cells
T1 sequence (P18089 1-450): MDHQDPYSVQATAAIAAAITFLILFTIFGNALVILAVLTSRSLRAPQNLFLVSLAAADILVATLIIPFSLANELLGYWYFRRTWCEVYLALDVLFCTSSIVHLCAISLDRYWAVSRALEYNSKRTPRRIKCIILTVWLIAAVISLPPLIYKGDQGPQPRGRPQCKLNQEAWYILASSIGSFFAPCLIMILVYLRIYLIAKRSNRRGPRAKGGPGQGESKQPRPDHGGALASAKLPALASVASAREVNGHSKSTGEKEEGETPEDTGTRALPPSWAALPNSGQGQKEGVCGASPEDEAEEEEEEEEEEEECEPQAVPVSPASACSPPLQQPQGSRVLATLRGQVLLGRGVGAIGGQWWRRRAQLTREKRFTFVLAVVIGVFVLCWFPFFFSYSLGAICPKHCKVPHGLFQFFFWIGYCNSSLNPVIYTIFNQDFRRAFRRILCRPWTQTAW
Description: Adrenergic α2B radioligand binding assay. Conditions: [3H]Rauwolscine specific binding; for inhibition at 0.1 µM: read-out: Percent Inhibition of ligand binding, Adrenergic (0.1 μM ligand conc.) α2B; for inhibition at 1 µM: read-out: Percent Inhibition of ligand binding, Adrenergic (1 μM ligand conc.) α2B. How it is done: To evaluate in radioligand binding assays the activity of compounds of the invention, human recombinant adrenergic α2B receptor expressed in Chinese hamster ovary (CHO-K1) cells [Uhlen, S et al., Eur J Pharmacol. (1998), 343(1):93] in a modified Tris-HCl buffer (50 mM Tris-HCl, pH 7.4, 12.5 mM MgCl2, 1 mM EDTA, 0.2% BSA) was used. Compounds of the invention were incubated with 2.5 nM [^3H]Rauwolscine for 60 min. at 25° C. Non-specific binding was estimated in the presence of 10 μM Prozosin. Receptor proteins were filtered and washed, the filters were then counted to determine [^3H]Rauwolscine specifically bound. Compounds were screened at 1 μM or lower, using 1% DMSO as vehicle. Compounds of the invention were tested in this biochemical assay. Biochemical assay results for representative compounds were presented as the percent inhibition of specific binding in Table 3.

Experiment [2] has as its target human recombinant dopamine D2L receptor (Homo sapiens, UniProt P14416). Nature of the experiment: Dopamine D2L radioligand binding assay. As to conditions: [3H]Spiperone specific binding; for inhibition at 1 µM: read-out: Percent Inhibition of ligand binding, Dopamine (1 μM ligand conc.) D2L. As to the method:
To evaluate in radioligand binding assays the activity of compounds of the invention, human recombinant dopamine D2L receptor expressed in Chinese hamster ovary (CHO) cells [Grandy, D. K. et al. Proc. Natl. Acad. Sci. USA. (1989), 86:9762; Hayes, G. et al., Mol. Endocrinol. (1992), 6:920] in a modified Tris-HCl buffer (50 mM Tris-HCl, pH 7.4, 1.4 mM Ascorbic Acid, 0.001% BSA, 150 mM NaCl) was used. Compounds of the invention were incubated with 0.16 nM [^3H]Spiperone for 120 min. at 25° C. Non-specific binding was estimated in the presence of 10 μM Haloperidol. Receptor proteins were filtered and washed, the filters were then counted to determine [^3H]Spiperone specifically bound. Compounds were screened at 1 μM or lower, using 1% DMSO as vehicle. Biochemical assay results are presented as the percent inhibition of specific binding in Table 3.

Experiment [3] concerns the target T2, human recombinant adrenergic α1D receptor (Homo sapiens, UniProt P25100).
T2 construct: expressed in transfected cells; host or cells: human embryonic kidney (HEK-293) cells
T2 sequence (P25100 1-572): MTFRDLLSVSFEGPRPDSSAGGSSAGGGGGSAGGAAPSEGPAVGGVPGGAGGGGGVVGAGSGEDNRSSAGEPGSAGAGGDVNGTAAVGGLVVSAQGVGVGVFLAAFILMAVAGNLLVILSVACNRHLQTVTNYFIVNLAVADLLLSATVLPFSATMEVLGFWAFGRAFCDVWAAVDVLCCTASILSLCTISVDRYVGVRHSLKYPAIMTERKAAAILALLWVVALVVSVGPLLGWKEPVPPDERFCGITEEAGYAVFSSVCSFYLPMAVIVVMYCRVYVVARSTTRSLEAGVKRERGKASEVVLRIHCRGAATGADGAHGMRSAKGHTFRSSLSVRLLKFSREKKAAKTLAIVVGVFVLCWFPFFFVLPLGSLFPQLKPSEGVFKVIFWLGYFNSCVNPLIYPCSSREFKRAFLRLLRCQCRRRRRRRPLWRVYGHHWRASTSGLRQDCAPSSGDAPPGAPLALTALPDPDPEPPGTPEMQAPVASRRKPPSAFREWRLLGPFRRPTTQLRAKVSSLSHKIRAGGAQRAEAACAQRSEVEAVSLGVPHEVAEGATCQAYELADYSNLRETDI
Description: Adrenergic α1D radioligand binding assay. As to conditions: [3H]Prozosin specific binding; for inhibition at 0.1 µM: read-out: Percent Inhibition of ligand binding, Adrenergic (0.1 μM ligand conc.) α1D. How it is done:
To evaluate in radioligand binding assays the activity of compounds of the invention, human recombinant adrenergic α1D receptor expressed in human embryonic kidney (HEK-293) cells [Kenny, B. A. et al. Br. J. Pharmacol. (1995), 115(6):981] in a 50 mM Tris-HCl buffer, pH 7.4, was used. Compounds of invention were incubated with 0.6 nM [^3H]Prozosin for 60 min. at 25° C. Non-specific binding was estimated in the presence of 10 μM phentolamine. Receptor proteins were filtered and washed, the filters were then counted to determine [^3H]Prozosin specifically bound. Compounds were screened at 1 μM or lower, using 1% DMSO as vehicle. Compounds of the invention were tested in this biochemical assay. Biochemical assay results for representative compounds were presented as the percent inhibition of specific binding in Table 3.

Experiment [4] has as its target T3, human recombinant histamine H2 receptor (Homo sapiens, UniProt P25021).
T3 construct: expressed in transfected cells; host or cells: Chinese hamster ovary (CHO) K1 cells
Nature of the experiment: Histamine H2 radioligand binding assay. Conditions: [125I]Aminopotentidine specific binding; for inhibition at 1 µM: read-out: Percentage Inhibition, Histamine Binding (1 μM) H2. How it is done: To evaluate in radioligand binding assays the activity of compounds of the invention, human recombinant histamine H2 receptor expressed in Chinese hamster ovary (CHO) K1 cells [Ruat, M., Proc. Natl. Acad. Sci. USA. (1990), 87(5):1658] in a 50 mM Phosphate buffer, pH 7.4 was used. Compounds of the invention were incubated with 0.1 nM [^125I]Aminopotentidine for 120 min. at 25° C. Non-specific binding was estimated in the presence of 3 μM Tiotidine. Receptor proteins were filtered and washed, the filters were then counted to determine [^125I]Aminopotentidine specifically bound. Compounds were screened at 1 μM or lower, using 1% DMSO as vehicle. Biochemical assay results are presented as the percent inhibition of specific binding in Table 2.

The structures appear in SMILES notation.

Sequence of human recombinant dopamine D2L receptor (P14416 whole entry): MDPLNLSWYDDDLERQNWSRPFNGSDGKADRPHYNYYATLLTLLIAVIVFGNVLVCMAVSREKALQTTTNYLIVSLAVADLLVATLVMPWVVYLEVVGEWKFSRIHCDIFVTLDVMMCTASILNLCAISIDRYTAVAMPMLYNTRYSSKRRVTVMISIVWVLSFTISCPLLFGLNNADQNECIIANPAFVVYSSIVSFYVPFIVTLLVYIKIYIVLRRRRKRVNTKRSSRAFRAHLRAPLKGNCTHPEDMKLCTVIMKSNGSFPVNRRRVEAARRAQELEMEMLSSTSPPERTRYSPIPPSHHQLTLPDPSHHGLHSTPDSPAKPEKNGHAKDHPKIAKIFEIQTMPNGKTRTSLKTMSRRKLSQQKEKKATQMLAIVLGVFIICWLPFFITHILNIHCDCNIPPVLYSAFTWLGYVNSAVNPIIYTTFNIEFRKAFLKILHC
T3 sequence (P25021 whole entry): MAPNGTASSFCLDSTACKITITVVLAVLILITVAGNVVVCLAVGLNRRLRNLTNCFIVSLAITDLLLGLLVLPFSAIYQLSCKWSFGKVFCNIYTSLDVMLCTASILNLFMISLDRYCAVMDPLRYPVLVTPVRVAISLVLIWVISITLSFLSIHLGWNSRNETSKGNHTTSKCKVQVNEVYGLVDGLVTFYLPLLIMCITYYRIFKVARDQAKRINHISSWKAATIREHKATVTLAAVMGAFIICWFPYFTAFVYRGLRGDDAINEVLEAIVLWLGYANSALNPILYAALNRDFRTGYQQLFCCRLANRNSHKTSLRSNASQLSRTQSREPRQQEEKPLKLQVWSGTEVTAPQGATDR

In general, inhibition refers to the relative decrease from the control value, in per cent. In the case of `C/C(=C\n1c2c(c3cc(C)ccc31)C1CCN(C2)C1)c1ccc(Cl)cc1` (centres unmarked) [Compound 32], the inhibition at 0.1 µM stood at 56% in experiment [1] and 9% in experiment [3]. Further, the inhibition at 1 µM in experiment [1] (1 μM) is 98%; in experiment [2], -12%; in experiment [3] (1 μM, read-out: Percent Inhibition of ligand binding, Adrenergic (1 μM ligand conc.) α1D), 80%; in experiment [4], 82%.
On to `C/C(=C\n1c2c(c3cc(C)ccc31)C1CCN(C2)C1)c1ccc(Cl)cc1Cl` (centres unmarked) [Compound 33], for which the figures for the inhibition at 0.1 µM in experiment [1] and in experiment [3] were 9% and -6%, respectively. Further, the inhibition at 1 µM in experiment [1] (1 μM) was 73%; in experiment [4] it was 35%. Besides, the “Percent Inhibition of ligand binding, Dopamine (1 μM ligand conc.) D2L” value in experiment [2] is reported as −6%. In experiment [3] (1 μM), the “Percent Inhibition of ligand binding, Adrenergic (1 μM ligand conc.) α1D” value is 28%.
`C/C(=C\n1c2c(c3cc(C)ccc31)C1CCN(C2)C1)c1ccc(Cl)cc1Cl` (centres unmarked) [Compound 34]: the “Percent Inhibition of ligand binding, Adrenergic (1 μM ligand conc.) α2B” value in experiment [1] (1 μM) was 55%. Besides, the “Percent Inhibition of ligand binding, Dopamine (1 μM ligand conc.) D2L” value in experiment [2] was 0%. Moreover, the “Percent Inhibition of ligand binding, Adrenergic (1 μM ligand conc.) α1D” value in experiment [3] (1 μM) turned out to be 11%. Besides, in experiment [4] (1 µM), the “Percentage Inhibition, Histamine Binding (1 μM) H2” value came out at 40%.
For the molecule `Cc1ccc2c(c1)c1c(n2C(=O)Cc2ccc(Cl)cc2)CN2CCC1C2` (centres unmarked) [Compound 36], the inhibition at 0.1 µM was 13% in experiment [1] and -2% in experiment [3]. Moreover, the inhibition at 1 µM in experiment [2] came to 3%; in experiment [4] it was 20%.
For `C/C(=C\n1c2c(c3cc(C)ccc31)C1CCN(C2)C1)c1ccccc1F` (centres unmarked) [Compound 38] the same measures were 25%, -3%, 1% and 7%.
Taken in the same sequence, the figures for `C/C(=C\n1c2c(c3cc(C)ccc31)C1CCN(C2)C1)c1ccncc1` (centres unmarked) [Compound 44] were 9%, 8%, 9% and -3%.
Taken in the same sequence, the figures for `COc1ccc(/C(C)=C/n2c3c(c4cc(C)ccc42)C2CCN(C3)C2)cc1` (centres unmarked) [Compound 45] were 15%, -1%, -2% and 21%.
